pEC50: −log10 of the molar value.
How the values were obtained:
[1] = tested on: human venous endothelial cells (HUVECs); assay: In vitro angiogenesis model (pseudotubule length of HUVECs on matrigel/collagen); format: cell-based; design: % activation with respect to FGF2 (in vitro): concentration or dose not given beside the values; details: for activity on the in vitro angiogenesis model: at a concentration of 1 nM, HUVECs, 24 hours; for pEC50 / % activation with respect to FGF2 (in vitro): in vitro; for % activation with respect to FGF2 (in vitro): relative to FGF2
Procedure: In Vitro Angiogenesis Model
The products are tested for their ability to cause rearrangement of human venous endothelial cells (HUVECs) on matrigel (Becton dickinson 356230) diluted in collagen (rat tail collagen, type I: Becton dickinson 354236). After 24 hours, the cells are observed under a microscope with a X4 objective and the length of the pseudotubules is measured by means of an image analyser (BIOCOM-logiciel Visiolab 2000).
By way of example, compounds 1, 2, 3, 5 and 9 are active at a concentration of 1 nM on the in vitro angiogenesis model.

[2] = tested on: BalbC mice; assay: Sponge angiogenesis model (haemoglobin content of implanted cellulose sponge); format: in vivo; details: concentration of 300 μM injected into the sponge, eighth day after implantation
Text: Sponge Angiogenesis Model
The sponge angiogenesis model is an adaptation of the technique of Andrade et al [Andrade S P, Machado R., Teixeir A S, Belo A V, Tarso A M, Beraldo W T—Sponge-induced angiogenesis in mice and the pharmacological reactivity of the neovasculature quantitated by fluorimetric method, Microvascular Research, 1997, 54: 253-61.]
The mice used are BalbC females from Charles River Laboratory, 7 to 10 weeks old. The animals are anaesthetized by intraperitoneal injection of a xylazine/ketamine mixture ([…] in 0.9% NaCl). The animal's back is shaved and disinfected with hexomedine. A subcutaneous 5 ml pocket of air is made on the animal's back with sterile air. An incision is then made (approximately 1 cm) on the top of the animal's back in order to implant the sponge into the pocket. The biocompatible cellulose sponge (Cellspon, Interchim, 10 mm in diameter) was sterilized beforehand (autoclave 20 min at 120° C.) and is impregnated with 50 μl of sterile solution containing the test product. Suturing is performed by inserting two 9-mm stainless steel autoclip staples (Subra). The wound is again disinfected with hexomedine. […]
To assay the haemoglobin, 50 μl of each sample are deposited in a 96-well plate, in duplicate. […] The OD values are read on a spectrophotometer at 405 nm, using the Biolise software (Tecan, France). […]

SMILES | activity on the in vitro angiogenesis model [1] | pEC50 [1] | % activation with respect to FGF2 (in vitro) [1] | activity on the in vivo angiogenesis model [2] | pEC50 ([1]; Homo sapiens, HUVEC)
O=C(O)c1cc(-c2cc(C(=O)NCCCOCCOCCCNC(=O)c3cc(-c4ccc(F)c(C(=O)O)c4)nc4[nH]nc(-c5ccccc5)c34)c3c(-c4ccccc4)n[nH]c3n2)ccc1F [Compound 1, 3,3′-{ethane-1,2-diylbis[oxypropane-3,1-diylcarbamoyl(3-phenyl-1H-pyrazolo[3,4-b]pyridine-4,6-diyl)]}bis(6-fluorobenzoic acid)] | active | > 9.00 | 84% | – | –
O=C(O)c1cc(-c2cc(C(=O)NCCCOCCOCCOCCCNC(=O)c3cc(-c4ccc(F)c(C(=O)O)c4)nc4[nH]nc(-c5ccccc5)c34)c3c(-c4ccccc4)n[nH]c3n2)ccc1F [Compound 2, 5-[4-({15-[6-(3-carboxy-4-fluorophenyl)-3-phenyl-1H-pyrazolo[3,4-b]pyridin-4-yl]-15-oxo-4,7,10-trioxa-14-azapentadec-1-yl}carbamoyl)-3-phenyl-1H-pyrazolo[3,4-b]pyridin-6-yl]-2-fluorobenzoic acid] | active | – | 84% | active | > 9.00
O=C(O)c1cc(-c2cc(C(=O)NCCOCCOCCOCCOCCNC(=O)c3cc(-c4ccc(F)c(C(=O)O)c4)nc4[nH]nc(-c5ccccc5)c34)c3c(-c4ccccc4)n[nH]c3n2)ccc1F [Compound 3, 5-[4-({16-[6-(3-carboxy-4-fluorophenyl)-3-phenyl-1H-pyrazolo[3,4-b]pyridin-4-yl]-16-oxo-3,6,9,12-tetraoxa-15-azahexadec-1-yl}carbamoyl)-3-phenyl-1H-pyrazolo[3,4-b]pyridin-6-yl]-2-fluorobenzoic acid] | active | – | 75% | – | > 9.00
O=C(O)c1cc(-c2cc(C(=O)NCCCOCCOCCOCCOCCOCCCNC(=O)c3cc(-c4ccc(F)c(C(=O)O)c4)nc4[nH]nc(-c5ccccc5)c34)c3c(-c4ccccc4)n[nH]c3n2)ccc1F [Compound 5, 5-[4-({21-[6-(3-carboxy-4-fluorophenyl)-3-phenyl-1H-pyrazolo[3,4-b]pyridin-4-yl]-21-oxo-4,7,10,13,16-pentaoxa-20-azahenicos-1-yl}carbamoyl)-3-phenyl-1H-pyrazolo[3,4-b]pyridin-6-yl]-2-fluorobenzoic acid] | active | – | 124% | – | > 9.00
NC(=O)c1cc(-c2ccc(F)c(C(=O)O)c2)nc2[nH]nc(-c3cccc(C(=O)NCCCOCCOCCOCCCNC(=O)c4cccc(-c5n[nH]c6nc(-c7ccc(F)c(C(=O)O)c7)cc(C(N)=O)c56)c4)c3)c12 [Compound 6, 5-(4-carbamoyl-3-{3-[(15-{3-[4-carbamoyl-6-(3-carboxy-4-fluorophenyl)-1H-pyrazolo[3,4-b]pyridin-3-yl]phenyl}-15-oxo-4,7,10-trioxa-14-azapentadec-1-yl)carbamoyl]phenyl}-1H-pyrazolo[3,4-b]pyridin-6-yl)-2-fluorobenzoic acid] | – | – | 50% | – | 8.52
NC(=O)c1cc(-c2ccc(F)c(C(=O)O)c2)nc2[nH]nc(-c3ccc(C(=O)NCCCOCCOCCOCCCNC(=O)c4ccc(-c5n[nH]c6nc(-c7ccc(F)c(C(=O)O)c7)cc(C(N)=O)c56)cc4)cc3)c12 [Compound 8, 5-(4-carbamoyl-3-{4-[(15-{4-[4-carbamoyl-6-(3-carboxy-4-fluorophenyl)-1H-pyrazolo[3,4-b]pyridin-3-yl]phenyl}-15-oxo-4,7,10-trioxa-14-azapentadec-1-yl)carbamoyl]phenyl}-1H-pyrazolo[3,4-b]pyridin-6-yl)-2-fluorobenzoic acid] | – | – | 20% | – | > 7.00
NC(=O)c1cc(-c2ccc(F)c(C(=O)O)c2)nc2[nH]nc(-c3ccc(C(=O)NCCOCCOCCNC(=O)c4ccc(-c5n[nH]c6nc(-c7ccc(F)c(C(=O)O)c7)cc(C(N)=O)c56)cc4)cc3)c12 [Compound 9, 3,3′-{ethane-1,2-diylbis[oxyethane-2,1-diylcarbamoylbenzene-4,1-diyl(4-carbamoyl-1H-pyrazolo[3,4-b]pyridine-3,6-diyl)]}bis(6-fluorobenzoic acid)] | active | > 9.00 | 60% | – | –
